Reference: article PMC11190219 (2024)

Legend:
[1] = test system: FAM-c-KIT2-TAMRA (DNA, G4) GGGCGGGCGCTAGGGAGGGG; assay: FRET melting; details: K+ 60 mM (potassium cacodylate); pH 7.4, 2 µM compound, 0.2 µM DNA
[2] = test system: c-MYC22 (NMR) (DNA, G4) TGAGGGTGGGTAGGGTGGGTAA; assay: 1D 1H NMR titration; details: K+ 100 mM; 25 mM Tris-HCl, pH 7.4, 100 µM DNA, 5-7.5% d6-DMSO
[3] = test system: c-KIT2 (DNA, G4) GGGCGGGCGCTAGGGAGGGG; assay: fluorescence titration (ligand emission); details: K+ 60 mM (potassium cacodylate); pH 7.4, room temperature, 2.5 µM TBP2, Hill-1 fit, apparent
[4] = test system: BCL-2 (DNA, G4) GGGCGCGGGAGGAATTGGGCGGG; assay: fluorescence titration (ligand emission); details: K+ 60 mM (potassium cacodylate); pH 7.4, room temperature, 2.5 µM TBP2, Hill-1 fit, apparent
[5] = test system: FAM-BCL-2-TAMRA (DNA, G4) GGGCGCGGGAGGAATTGGGCGGG; assay: FRET melting; details: K+ 60 mM (potassium cacodylate); pH 7.4, 2 µM compound, 0.2 µM DNA
[6] = test system: FAM-c-KIT1-TAMRA (DNA, G4) GGGAGGGCGCTGGGAGGAGGG; assay: FRET melting; details: K+ 60 mM (potassium cacodylate); pH 7.4, 2 µM compound, 0.2 µM DNA
[7] = test system: c-KIT1 (DNA, G4) GGGAGGGCGCTGGGAGGAGGG; assay: fluorescence titration (ligand emission); details: K+ 60 mM (potassium cacodylate); pH 7.4, room temperature, 2.5 µM TBP2, Hill-1 fit, apparent
[8] = test system: h-TELO (DNA, G4) TTGGGTTAGGGTTAGGGATTAGGGA; assay: fluorescence titration (ligand emission); details: K+ 60 mM (potassium cacodylate); pH 7.4, room temperature, 2.5 µM TBP2, Hill-1 fit, apparent

| ΔTM [1] [°C] | binding [2] | Kd [3] [µM] | Kd [4] [µM] | ΔTM [5] [°C] | ΔTM [6] [°C] | Kd [7] [µM] | Kd [8] [µM] | Compound |
| --- | --- | --- | --- | --- | --- | --- | --- | --- |
| 4.1 ± 0.2 | yes | 9.2 | 10.2 | 3.8 ± 0.2 | 1.3 ± 0.1 | 9.5 | 8.2 | CN(C)CCCNC(=O)c1csc(NC(=O)c2csc(NC(=O)CCCc3cn(CCNC(=O)c4csc(NC(=O)c5csc(N)n5)n4)nn3)n2)n1 |
| 0.5 ± 0 |  |  |  | 1 ± 0 | 0 |  |  | CN(C)CCCNC(=O)c1csc(NC(=O)c2csc(NC(=O)CCCc3cn(CCNC(=O)c4csc(NC(=O)c5csc(NC(=O)OC(C)(C)C)n5)n4)nn3)n2)n1 |
